The text below walks through data of BindingDB's records for doi:10.1021/jm00063a004 (Cnrs-Cercoa, 1993).

The structures appear in SMILES notation.

For the test, the target named is Trypsin (Sus scrofa) (UniProt P00761). As to the kind of experiment: Apparent binding constant against porcine trypsin.
Trypsin (Sus scrofa), sequence (P00761 whole entry, looked up): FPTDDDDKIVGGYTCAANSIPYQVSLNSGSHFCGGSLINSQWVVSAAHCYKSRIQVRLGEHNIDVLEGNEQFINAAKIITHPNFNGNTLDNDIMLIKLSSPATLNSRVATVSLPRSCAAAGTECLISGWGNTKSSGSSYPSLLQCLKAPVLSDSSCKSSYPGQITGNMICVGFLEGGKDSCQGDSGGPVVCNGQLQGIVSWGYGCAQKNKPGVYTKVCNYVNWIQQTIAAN

`N=C(N)NCCCC1NC(=O)CNC(=O)c2cc(ccc2CBr)NC1=O` (stereo unspecified) [N-[3-(11-Bromomethyl-3,6,9-trioxo-2,5,8-triaza-bicyclo[8.3.1]tetradeca-1(13),10(14),11-trien-4-yl)-propyl]-guanidine]: the Ki amounted to 20 µM.
